Where “and” joins values, the source holds several entries; their conditions need not be identical. Equal values may be shown once.

Data set [1] relates to E. coli K12. As to the kind of experiment: Antibacterial activity of cationic hydrogel 11, viable count method. Format: cell-based, Escherichia coli. To be noted: hydrogel 11 at 1% w/v in contact with E. coli. The method, then:
(§1) The antibacterial activity of the anthranilamide-based cationic hydrogels 11-13 and 15-19 was investigated in vitro against S. aureus. The antibacterial activity of anthranilamide-based cationic hydrogel 11 was also investigated in vitro against E. coli.
First, a single colony of S. aureus 38 or E. coli K12 was grown in Luria-Bertani (LB) broth medium at 37° C. overnight. The resulting bacteria were harvested, via centrifugation, to obtain a bacteria pellet which was re-suspended in the same volume of LB medium, twice. The optical density (OD) value of the resulting culture was adjusted to 0.1 at 600 nm in LB (10^8 cfu·mL^−1). This bacteria solution was then further adjusted to 3×10^4 cfu mL^−1. (CFU or cfu=colony-forming unit). Bacteria solutions (1 mL), which contain either 10^8 CFUs/mL or 3×10^4 CFUs/mL, were gently added to hydrogel 11 at 1% w/v with total volume of 1 mL. Anthranilamide-based cationic hydrogels 11-13 and 15-19 (1 mL) were prepared at 1% w/v in glass vials as described above. On top of these pre-formed hydrogels, 1 mL of bacteria solution was carefully cast. […] As a negative control, a bacterial solution in the absence of hydrogel was used. […] The following day, bacterial growth inhibition was quantified using the viable count method. […]

The next data set concerns S. aureus 38. Put plainly: Antibacterial activity of cationic hydrogels, viable count method. To be noted: hydrogel at 1% w/v in contact with S. aureus, compared to control. The class given is cell-based, Staphylococcus aureus. The method, then: as §1
First, a single colony of S. aureus 38 or E. coli K12 was grown in Luria-Bertani (LB) broth medium at 37° C. overnight. The resulting bacteria were harvested, via centrifugation, to obtain a bacteria pellet which was re-suspended in the same volume of LB medium, twice. The optical density (OD) value of the resulting culture was adjusted to 0.1 at 600 nm in LB (10^8 cfu·mL^−1). This bacteria solution was then further adjusted to 3×10^4 cfu mL^−1. (CFU or cfu=colony-forming unit). Bacteria solutions (1 mL), which contain either 10^8 CFUs/mL or 3×10^4 CFUs/mL, were gently added to hydrogel 11 at 1% w/v with total volume of 1 mL. Anthranilamide-based cationic hydrogels 11-13 and 15-19 (1 mL) were prepared at 1% w/v in glass vials as described above. On top of these pre-formed hydrogels, 1 mL of bacteria solution was carefully cast. […] As a negative control, a bacterial solution in the absence of hydrogel was used. After being incubated at 37° C. for 18 hours, 100 μL of bacteria solution in each vial was taken and subjected to serial dilution using phosphate buffer solution (PBS). 20 μL of each dilution were carefully transferred into nutrient agar plates and incubated for another 18 hours. The following day, bacterial growth inhibition was quantified using the viable count method. The experiment was performed twice in triplicate and multiple sample comparison was performed using one-way ANOVA at p<0.05.

Data set [2] in a line: Release of cationic short peptide from hydrogel (UV-Vis). The class given is physicochemical. To be noted: hydrogel 1% w/v, PBS, 37° C. As to the method: Hydrogel 11 was made at 1% w/v with a final volume of 1 mL. The resulting hydrogel was left to stand overnight at room temperature. Phosphate buffer solution (PBS, 1 mL) was added gently from the side wall to avoid physical fractures. Subsequently, the vial was incubated at 37° C., where 1 mL of PBS was sampled at each time point and replaced with fresh PBS. Samples were subjected to 10× dilution before analysis using UV-Vis spectroscopy. This experiment was performed in triplicate.

The nature of the next data set: Solubility in water. Format: physicochemical. To be noted: even with vigorous heating. As to the method:
Nitrobenzene-appended short peptide 4 was not soluble in water even with vigorous heating. Therefore, NaOH (2 equivalents) was added to deprotonate the carboxylic acid group at the C-terminus of short peptide 4, generating a sodium carboxylate salt with increased solubility in water. The yellow suspension of short peptide 4 was sonicated for 5 minutes after the addition of alkali, resulting is dissolution and formation of a yellow solution.

The subject of data set [3] is E. coli K12. Put plainly: Antibacterial activity of NO released from hydrogel 4 under blue light, viable count method. Format: cell-based, Escherichia coli. As to the method: The antibacterial activity of NO released from hydrogel 4 was investigated in vitro. Initially, a single colony of E. coli K12 was grown in LB broth medium (Sigma-Aldrich) at 37° C. overnight. The resulting bacteria were harvested via centrifugation to obtain a bacteria pallet which was re-suspended in the same volume of LB, twice. The optical density value of the resulting culture was adjusted to 0.1 at 600 nm (10^8 cfu·mL^−1). This bacteria solution was then further adjusted to 3×10^4 cfu·mL^−1.
Hydrogel 4 was prepared at 1% w/v in two different vials. The first vial (vial a) contained hydrogel 4 which will be exposed to blue light. Meanwhile vial b contained hydrogel 4, which will be covered using aluminium foil during the entire experiment. Furthermore, on top of these pre-formed hydrogels, 1 mL of bacteria solution was carefully cast. A vial c that contained only 1 mL of bacteria solution was also prepared. Subsequently, vial a and vial c were irradiated using blue light (440-450 nm). As a negative control, a bacteria solution in the absence of hydrogel and blue light was used in this experiment. After 2 hours, 100 μL of bacteria solution in each vial was taken and subjected to serial dilution using PBS. 20 μL of each dilution were carefully transferred into nutrient agar plates and incubated for another 18 hours. The following day, bacterial growth inhibition were quantified using viable count method. The experiment was performed twice in triplicate and multiple sample comparison was performed using one-way ANOVA at p<0.05.
Bacterial culture (1 mL containing 3×10^4 CFU) was carefully placed on top of hydrogel 4, followed by irradiation of blue light for 1 hour. The viability of bacteria after being exposed to blue light was calculated via the viable count method as illustrated in FIG. 15.
Hydrogel 4, by itself, might exert activity against E. coli. Therefore, the antibacterial activity of hydrogel 4 in the absence of blue light was also determined in a control experiment. […]

Regarding `NCCCNC(=O)[C@H](Cc1ccccc1)NC(=O)c1ccccc1NC(=O)c1ccc2ccccc2c1` [Compound 11], the bacteria reduction in the data set with E. coli K12 [1] was 6.4 Log10 and 6.2 Log10. Besides, the bacterial reduction in the data set with S. aureus 38 was 9.0 Log10. Further, the “peptide released from hydrogel” value in data set [2] (24 hours) is 0.15 mg/mL and 221 μM. The total peptide released in data set [2] (over 9 days) is listed as roughly 14%.
In the case of `O=C(Nc1ccccc1C(=O)N[C@@H](Cc1ccccc1)C(=O)N[C@@H](Cc1ccccc1)C(=O)O)c1ccc([N+](=O)[O-])c(C(F)(F)F)c1` [Compound 4, (2-(4-Nitro-3-(trifluoromethyl)benzamido)benzoyl)-L-phenylalanyl-L-phenylalanine], the solubility in water entry in “Solubility in water” was “not soluble”. The Log reduction with E. coli K12 [3] (hydrogel 4 1% w/v, blue light irradiation 1 hour) is reported as roughly 3 Log. For the same compound, in the data set on E. coli K12 [3] (hydrogel 4 1% w/v, blue light irradiation 1 hour, from 3×10^4 CFUs), the “bacterial number after treatment” value stood at 34 CFUs. Further, in the data set with E. coli K12 [3] (hydrogel 4 without light irradiation), the “bacterial reduction without light” value is listed as “no bacterial reduction was observed”.

Source of the values: patent publication US20230123497A1, “NOVEL ANTIBACTERIAL HYDROGELS” (NewSouth Innovations Pty Limited, priority 2020, published 2023).
